Key:
Type in all cases: cell-based
[1] = target: T1, M1 muscarinic receptor (Homo sapiens, UniProt P11229); assay: Functional mobilization of intracellular calcium (FLIPR), M1-CHO cells; settings: for Emax: 100% efficacy = maximum response obtained with the Carbachol control; for M1 Activity: M1-CHO cells, calcium mobilization (FLIPR)
T1 construct: expressed in transfected cells; host or cells: CHO (M1-CHO)
T1 sequence (P11229 1-460): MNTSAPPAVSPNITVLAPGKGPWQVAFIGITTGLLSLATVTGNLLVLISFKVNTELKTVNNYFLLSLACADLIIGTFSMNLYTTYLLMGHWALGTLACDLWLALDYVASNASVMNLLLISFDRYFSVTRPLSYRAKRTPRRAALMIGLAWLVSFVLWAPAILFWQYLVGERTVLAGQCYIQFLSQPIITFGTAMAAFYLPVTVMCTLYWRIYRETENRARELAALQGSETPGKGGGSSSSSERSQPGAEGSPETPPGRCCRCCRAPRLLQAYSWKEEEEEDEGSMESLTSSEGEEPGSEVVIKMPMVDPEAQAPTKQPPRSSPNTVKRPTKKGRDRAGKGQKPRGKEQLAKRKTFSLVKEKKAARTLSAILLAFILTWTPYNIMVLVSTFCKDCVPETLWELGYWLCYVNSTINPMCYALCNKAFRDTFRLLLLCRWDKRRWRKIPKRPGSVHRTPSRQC
How it was run: (§1)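 CHO cells expressing human M1–M4 receptors loaded with Fluo-3 AM or Calcium 3 dye (1 mM probenecid, pH 7.4); 0.5% DMSO final. Agonist mode: compound added directly; antagonist mode: 15 min pre-incubation or co-application, then carbachol at EC80. Fluorescence read 60 s on FLIPR; efficacy relative to carbachol maximum.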

[2] = target: T2, M3 muscarinic receptor (Homo sapiens, UniProt P20309); assay: Functional mobilization of intracellular calcium (FLIPR), M3-CHO cells; settings: for Emax: 100% efficacy = maximum response obtained with the Carbachol control; for M3 Activity: M3-CHO cells, calcium mobilization (FLIPR)
T2 construct: expressed in transfected cells; host or cells: CHO (M3-CHO)
Procedure: Functional Mobilization of Intracellular Calcium to Determine Muscarinic Receptor Activity:
CHO cells expressing muscarinic receptors (M1 to M5) are grown as monolayers in tissue culture flasks at 37° C. in a humidified atmosphere containing 5% CO2 and passaged every 3-5 days. The growth media is Dulbecco's modified eagles medium (DMEM, Gibco Cat #12430-054), containing 25 mM Hepes and supplemented with Fetal Bovine Serum (Hyclone, cat #SH30071.03), 0.1 mM of MEM non-essential amino acids (GIBCO, Cat #11140-050), 1 mM MEM Sodium Pyruvate (GIBCO Cat #11360-070) and 100 units/ml of Penicillin G and 100 μg/ml of Streptomycin (GIBCO Cat #15140-122). The recombinant muscarinic receptor cell lines are grown under antibiotic pressure with media containing 25 μg/ml zeocin and 500 μg/ml G418 (M1-CHO), 4 μg/ml puromycin, 50 μg/ml zeocin and 2.5 μg/ml blasticidin (M2 and M4-CHO) or 50 μg/ml zeocin and 4 μg/ml puromycin (M3 and M5-CHO).
Cells are harvested at 80-90% confluence using Versene (GIBCO Cat #15040-066), collected by centrifugation and seeded 18-24 hrs prior to running the calcium assay at a density of 5,000-10,000 cells/well in […], clear-bottomed 384-well plates (BD Biocoat, poly-D-lysine, Cat #356663). The day of the experiment, the cells are washed with a plate washer (Bioteck Instruments, ELX 405) using bath 1 buffer (140-mM NaCl, 4.5-mM KCl, 2-mM CaCl2, 1-mM MgCl2, 10-mM Hepes-Na, 10-mM Glucose, pH 7.4, with NaOH) containing 1 mM Probenecid. Next, the calcium dye Fluo-3 (25 μl/well of Fluo-3 AM at 4 μM, Molecular Probes F-1241, in Bath 1 buffer containing 1 mM Probenecid) is added to the 25 μl of Bath 1 remaining in each well after the plate wash and the dye is loaded at 37° C. in the tissue culture incubator for 60-90 min. The fluorescent dye is removed using the plate washer with Bath 1 containing 1 mM Probenecid, leaving 25 μl/well of this solution after the wash. Alternatively, cells can be loaded with the calcium indicator from Molecular Devices (Calcium 3 Assay Reagents, Cat #R7181) adding 5 μl of a 5× solution dye in Bath 1 containing 1 mM Probenecid (10 ml per dye flask cat #R7182 to generate a solution 20×) to 20 μl of the same buffer. After loading for 60 min, the experiment can be run without having to remove the dye.
Compounds are prepared at a 2× fold concentration in a 96-well plate (round bottom, Costar Corning cat #3656), by reconstituting the pre-spotted compounds in bath 1 containing 1 mM probenecid. The final concentration DMSO is 0.5%, and the amount of DMSO is normalized across the assay plate. To determine an agonist action of the compounds on muscarinic receptors, the reconstituted compounds are added (25 μl compound/well) to the cell assay plate (containing 25 μl/well) using the multi-channel robotic system of the FLIPR 3 Instrument (Molecular Devices, Sunnyvale, Calif.). To determine a functional inhibitory action of the compounds on muscarinic receptors, the reconstituted compounds are added (25 μl compound/well) to the assay plate and pre-incubated for 15 min prior to adding 25 μl of Carbachol at 3× the EC80 for each muscarinic subtype. Alternatively, the compounds can be co-applied simultaneously with the agonist. In both assay modes, the fluorescence is recorded for 60 sec (excitation wavelength is […] and emission wavelength 540 nm) using the FLIPR 3 instrument.
The potency, efficacy and selectivity of the muscarinic compounds were evaluated by screening the compound activity across the whole family (M1 to M5 cells). Compounds were also screened for activity on other proteins such as other GPCRs and ion channels to determine selectivity on M4 receptors.
Examples of activities and efficacies of the muscarinic compounds of formulae (I, Ia, Ib, and II) on modulating M1, M2, M3 and M4 receptors are shown below in Table 3. […]

[3] = target: T3, M2 muscarinic receptor (Homo sapiens, UniProt P08172); assay: Functional mobilization of intracellular calcium (FLIPR), M2-CHO cells; settings: for Emax: 100% efficacy = maximum response obtained with the Carbachol control; for M2 Activity: M2-CHO cells, calcium mobilization (FLIPR)
T3 construct: expressed in transfected cells; host or cells: CHO (M2-CHO)
T3 sequence (P08172 1-466): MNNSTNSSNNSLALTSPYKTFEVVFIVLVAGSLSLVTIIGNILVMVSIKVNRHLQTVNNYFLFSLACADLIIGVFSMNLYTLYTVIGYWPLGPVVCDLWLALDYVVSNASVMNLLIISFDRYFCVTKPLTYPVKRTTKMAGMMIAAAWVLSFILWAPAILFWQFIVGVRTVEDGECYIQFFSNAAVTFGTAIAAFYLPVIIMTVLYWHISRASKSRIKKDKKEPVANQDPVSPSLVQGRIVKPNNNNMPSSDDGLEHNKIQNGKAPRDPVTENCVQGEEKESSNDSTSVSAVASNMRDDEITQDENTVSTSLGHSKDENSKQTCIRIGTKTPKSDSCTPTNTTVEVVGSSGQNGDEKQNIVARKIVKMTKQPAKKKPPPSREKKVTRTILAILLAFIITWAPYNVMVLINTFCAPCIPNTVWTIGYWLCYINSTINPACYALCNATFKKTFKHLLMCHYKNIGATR
How it was run: as §1

[4] = target: T4, M4 muscarinic receptor (Homo sapiens, UniProt P08173); assay: Functional mobilization of intracellular calcium (FLIPR), M4-CHO cells; settings: for Emax: 100% efficacy = maximum response obtained with the Carbachol control; for M4 Activity: M4-CHO cells, calcium mobilization (FLIPR)
T4 construct: expressed in transfected cells; host or cells: CHO (M4-CHO)
T4 sequence (P08173 1-479): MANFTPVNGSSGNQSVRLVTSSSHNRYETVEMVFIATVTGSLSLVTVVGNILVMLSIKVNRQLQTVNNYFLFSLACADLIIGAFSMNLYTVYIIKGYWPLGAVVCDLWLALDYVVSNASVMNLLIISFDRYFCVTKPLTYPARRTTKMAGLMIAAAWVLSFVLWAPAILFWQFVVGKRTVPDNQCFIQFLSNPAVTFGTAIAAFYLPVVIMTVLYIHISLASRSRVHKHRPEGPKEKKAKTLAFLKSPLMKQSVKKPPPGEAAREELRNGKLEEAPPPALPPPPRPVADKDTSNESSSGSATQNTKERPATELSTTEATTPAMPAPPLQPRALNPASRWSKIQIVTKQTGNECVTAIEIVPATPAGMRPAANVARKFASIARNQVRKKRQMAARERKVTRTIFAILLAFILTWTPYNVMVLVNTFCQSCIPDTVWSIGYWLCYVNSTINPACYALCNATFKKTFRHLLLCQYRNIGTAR
How it was run: as §1

T2 sequence (P20309 whole entry): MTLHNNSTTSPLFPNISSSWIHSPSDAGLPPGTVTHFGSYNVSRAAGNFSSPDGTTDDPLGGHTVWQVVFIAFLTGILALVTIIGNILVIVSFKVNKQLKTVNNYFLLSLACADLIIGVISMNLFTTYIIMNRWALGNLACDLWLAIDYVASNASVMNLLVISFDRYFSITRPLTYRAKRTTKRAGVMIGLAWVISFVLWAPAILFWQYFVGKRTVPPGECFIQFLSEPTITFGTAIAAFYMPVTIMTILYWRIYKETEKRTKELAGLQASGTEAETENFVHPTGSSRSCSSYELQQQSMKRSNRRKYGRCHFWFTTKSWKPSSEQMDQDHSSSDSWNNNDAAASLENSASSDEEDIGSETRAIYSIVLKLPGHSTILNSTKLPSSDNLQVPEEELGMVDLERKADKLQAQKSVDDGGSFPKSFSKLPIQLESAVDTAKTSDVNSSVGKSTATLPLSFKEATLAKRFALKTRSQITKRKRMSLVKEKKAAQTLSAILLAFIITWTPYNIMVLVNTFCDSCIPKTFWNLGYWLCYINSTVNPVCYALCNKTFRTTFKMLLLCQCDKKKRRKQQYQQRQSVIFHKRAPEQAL

Compound	Emax [1]	Emax [2]	Emax [3]	Emax [4]	M1 Activity [1]	M3 Activity [2]	M2 Activity [3]	M4 Activity [4]
COc1ccc(-c2ccc(C(N)=O)cc2)cc1C1CCN([C@H]2C[C@H]3CC[C@H]2C3)CC1 [Compound 6]	< 25%	< 25%	< 25%	< 25%	+ (activity was measured to be greater than 5.0 μM)	+ (activity was measured to be greater than 5.0 μM)	+ (activity was measured to be greater than 5.0 μM)	+ (activity was measured to be greater than 5.0 μM)
COc1ccc(-c2ccc(C(C)=O)cc2)cc1C1CCN([C@H]2C[C@H]3CC[C@H]2C3)CC1 [Compound 7]	< 25%	< 25%	< 25%	25 to 100%	+ (activity was measured to be greater than 5.0 μM)	+ (activity was measured to be greater than 5.0 μM)	+ (activity was measured to be greater than 5.0 μM)	++ (activity was measured to be from 1.0 μM to 5.0 μM)
COc1ccc(-c2ccc(C(=O)N3CCOCC3)cc2)cc1C1CCN([C@H]2C[C@H]3CC[C@H]2C3)CC1 [Compound 8]	< 25%	< 25%	< 25%	< 25%	+ (activity was measured to be greater than 5.0 μM)	+ (activity was measured to be greater than 5.0 μM)	+ (activity was measured to be greater than 5.0 μM)	+ (activity was measured to be greater than 5.0 μM)
COc1ccc(Cl)cc1C1CCN(C2CCCCC2)CC1 [Compound 9]	25 to 100%	< 25%	25 to 100%	25 to 100%	+++ (activity was measured to be less than 1.0 μM)	+ (activity was measured to be greater than 5.0 μM)	+++ (activity was measured to be less than 1.0 μM)	+++ (activity was measured to be less than 1.0 μM)

The next lines start with results.

Emax [1]	Emax [2]	Emax [3]	Emax [4]	Compound	M1 Activity [1]	M3 Activity [2]	M2 Activity [3]	M4 Activity [4]
< 25%	< 25%	< 25%	25 to 100%	CNC(=O)c1ccc(-c2ccc(OC)c(C3CCN(C4CCOCC4)CC3)c2)cc1Cl [Compound 11]	+ (activity was measured to be greater than 5.0 μM)	+ (activity was measured to be greater than 5.0 μM)	+ (activity was measured to be greater than 5.0 μM)	++ (activity was measured to be from 1.0 μM to 5.0 μM)
< 25%	< 25%	25 to 100%	25 to 100%	O=C(COc1ccccc1C1CCN([C@H]2C[C@H]3CC[C@H]2C3)CC1)c1ccc(F)cc1 [Compound 12]	+ (activity was measured to be greater than 5.0 μM)	+ (activity was measured to be greater than 5.0 μM)	+ (activity was measured to be greater than 5.0 μM)	++ (activity was measured to be from 1.0 μM to 5.0 μM)
< 25%	< 25%	< 25%	< 25%	COc1ccccc1-c1ccc(OC)c(C2CCN([C@H]3C[C@H]4CC[C@H]3C4)CC2)c1 [Compound 13]	+ (activity was measured to be greater than 5.0 μM)	+ (activity was measured to be greater than 5.0 μM)	+ (activity was measured to be greater than 5.0 μM)	+ (activity was measured to be greater than 5.0 μM)
25 to 100%	< 25%	25 to 100%	25 to 100%	CCOC(=O)N1CCC(CN2CCC(c3cc(Cl)ccc3OC)CC2)CC1 [Compound 14]	+++ (activity was measured to be less than 1.0 μM)	+ (activity was measured to be greater than 5.0 μM)	+++ (activity was measured to be less than 1.0 μM)	+++ (activity was measured to be less than 1.0 μM)
< 25%	< 25%	< 25%	25 to 100%	COc1ccccc1C1CCN(C2CCCC2)CC1 [Compound 15]	+ (activity was measured to be greater than 5.0 μM)	+ (activity was measured to be greater than 5.0 μM)	+ (activity was measured to be greater than 5.0 μM)	+++ (activity was measured to be less than 1.0 μM)

Source: US7880007B2, “Bicyclic substituted phenyl piperidine modulators of muscarinic receptors” (Vertex Pharmaceuticals Incorporated, priority 2004, dated 2011)
